Tested on: IL-2 production in Jurkat cell
Assay: Jurkat IL-2 Production Assay
Format: cell-based
Settings: Homo sapiens, Jurkat cell (ATCC), 18-20 h incubation, serum/stimulant condition (1% FBS/PHA or 30% FBS/PMA-ionomycin) not given
Experimental: Jurkat IL-2 Production Assay
Jurkat cell (ATCC) was grown in RPMI 1640 with 10% FBS and 1% penicillin/streptomycin. The cell density was kept at 1.2˜1.8×10^6/mL in culture flask before seeding into culture plate, and the cell density in the plate was 0.5×10^6/[…]/well.
RPMI 1640 with 1% FBS or 30% FBS for high serum assay.
serial dilution was done in 100% DMSO, and intermediate dilution was done with RPMI 1640 medium with 1% FBS. The DMSO final concentration in culture well was 0.25%.
PHA (Sigma#L9017-10MG) was used for the assay with 1% FBS in culture medium, and added after 10 minutes exposure of cell to compound/DMSO. The PHA final concentration in culture well was 5 μg/mL. PMA (Sigma# P-8139 5MG)/Ionomycin (Sigma# I0634-5MG) was used for the assay with 30% FBS in culture medium, and added at same time point as the 1% FBS culture assay. The final concentration of PMA was 50 ng/mL, and Ionomycin final concentration was 500 ng/mL.
at 37° C. with 5% CO2 and 95% humidity for 18 h ˜20 h.
IC50 was calculated with the data analysis software XLfit4, General Pharmacology model 251.

Question: For `COc1cc(F)c(-c2cc3nc(-c4ccc(S(=O)(=O)N(C)C)cc4C)ccc3[nH]2)c(F)c1` [Example 13, 4-(2-(2,6-difluoro-4-methoxyphenyl)-1H-pyrrolo[3,2-b]pyridin-5-yl)-N,N,3-trimethylbenzenesulfonamide], which IC50 is on record?
Answer: Its IC50 is 169 nM.

Question: With `Cc1cc(C#N)ccc1-c1ccc2[nH]c(-c3c(F)cccc3F)cc2n1` [Example 11, 4-[2-(2,6-Difluoro-phenyl)-1H-pyrrolo[3,2-b]pyridin-5-yl]-3-methyl-benzonitrile] as the molecule, how does the IC50 read?
Answer: The IC50 was 767 nM.

Question: `Cc1cc(S(=O)(=O)N(C)C)ccc1-c1ccc2[nH]c(-c3c(F)cccc3F)cc2n1` [Example 10, 4-[2-(2,6-Difluoro-phenyl)-1H-pyrrolo[3,2-b]pyridin-5-yl]-3,N,N-trimethyl-benzenesulfonamide] was tested. Which IC50 did it give?
Answer: The IC50 was 134 nM.

Question: `Cc1cc(S(=O)(=O)N(C)C)ccc1-c1ccc2[nH]c(-c3c(F)cccc3Cl)cc2n1` [Example 6, 4-(2-(2-chloro-6-fluorophenyl)-1H-pyrrolo[3,2-b]pyridin-5-yl)-N,N,3-trimethylbenzenesulfonamide] was tested. Which IC50 did it give?
Answer: Its IC50 is 92 nM.

Question: Which IC50 does the source give for `Cc1cc(C#N)ccc1-c1ccc2[nH]c(-c3c(F)cccc3Cl)cc2n1` [Example 5, 4-(2-(2-chloro-6-fluorophenyl)-1H-pyrrolo[3,2-b]pyridin-5-yl)-3-methylbenzonitrile] here?
Answer: The IC50 was 347 nM.

Question: With `Cn1nc(C(F)(F)F)cc1-c1ccc2[nH]c(-c3c(F)cccc3Cl)cc2n1` [Example 3, 2-(2-Chloro-6-fluoro-phenyl)-5-(2-methyl-5-trifluoromethyl-2H-pyrazol-3-yl)-1H-pyrrolo[3,2-b]pyridine] as the molecule, how does the IC50 read?
Answer: Its IC50 is 94 nM.

Question: How did the IC50 turn out when `Cc1cc(C(F)(F)F)ccc1-c1ccc2[nH]c(-c3c(F)cccc3Cl)cc2n1` [Example 4, 2-(2-chloro-6-fluorophenyl)-5-(2-methyl-4-(trifluoromethyl)phenyl)-1H-pyrrolo[3,2-b]pyridine] was run?
Answer: The IC50 was 80 nM.

Question: For `Cn1nc(C(F)(F)F)cc1-c1ccc2[nH]c(-c3c(F)cccc3F)cc2n1` [Example 12, 2-(2,6-Difluoro-phenyl)-5-(2-methyl-5-trifluoromethyl-2H-pyrazol-3-yl)-1H-pyrrolo[3,2-b]pyridine], which IC50 is on record?
Answer: The IC50 was 200 nM.

Question: For `Cc1cc(Cl)ncc1-c1ccc2[nH]c(-c3c(F)cccc3Cl)cc2n1` [Example 2, 2-(2-Chloro-6-fluoro-phenyl)-5-(6-chloro-4-methyl-pyridin-3-yl)-1H-pyrrolo[3,2b]pyridine], which IC50 is on record?
Answer: The IC50 was 246 nM.

Question: Which IC50 does the source give for `Cc1cc(S(=O)(=O)N(C)C)ccc1-c1ccc2[nH]c(-c3ccccc3Cl)cc2n1` [Example 7, 4-[2-(2-Chloro-phenyl)-1H-pyrrolo[3,2-b]pyridin-5-yl]-3,N,N-trimethyl-benzenesulfonamide] here?
Answer: The IC50 was 300 nM.

Question: Which IC50 does the source give for `Cn1nc(C(F)(F)F)cc1-c1ccc2[nH]c(-c3ccc(F)cc3Cl)cc2n1` [Example 8, 2-(2-Chloro-4-fluoro-phenyl)-5-(2-methyl-5-trifluoromethyl-2H-pyrazol-3-yl)-1H-pyrrolo[3,2-b]pyridine] here?
Answer: The IC50 was 147 nM.

Question: Which IC50 does the source give for `Cc1cc(S(=O)(=O)N(C)C)ccc1-c1ccc2[nH]c(-c3ccc(F)cc3Cl)cc2n1` [Example 9, 4-[2-(2-Chloro-4-fluoro-phenyl)-1H-pyrrolo[3,2-b]pyridin-5-yl]-3,N,N-trimethyl-benzenesulfonamide] here?
Answer: The IC50 was 98 nM.
